This passage reports Kd results from PubChem BioAssay AID608 (Sanford-Burnham Center for Chemical Genomics, 2007).

Active and inactive are the calls of the source. The rule behind the calls is not given here.

For this assay, the target named is Peptidyl-prolyl cis-trans isomerase FKBP1A (Homo sapiens) (UniProt P62942). In words: FKBP12 binders, biophysical, NMR detection (AID 608). Conditions: NMR binding, purified FKBP12.
Sequence of Peptidyl-prolyl cis-trans isomerase FKBP1A (Homo sapiens) (P62942 whole entry, looked up): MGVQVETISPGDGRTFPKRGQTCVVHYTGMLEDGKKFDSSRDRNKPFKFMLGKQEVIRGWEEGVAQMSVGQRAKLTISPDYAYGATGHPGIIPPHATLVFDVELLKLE
As to `Oc1cccc(N2CCOCC2)c1`, the Kd (as a rule, the concentration at which binding is half-saturated) was > 4 mM (inactive). For `c1cncc(Nc2nc(-c3ccncc3)cs2)c1` the value was > 4 mM (inactive); for `Nc1c(/C=C2\C=Nc3ccccc32)c(=O)nc2scnn12`, > 4 mM (inactive); for `NC1=NC(=O)C(Cc2cccc([N+](=O)[O-])c2)S1` (stereo not drawn), > 4 mM (inactive). For `O=C(CSc1ncn[nH]1)c1ccc2c(c1)OCCO2`, the Kd was > 4 mM (inactive).

For `O=C(c1cc(Cl)cc(Cl)c1)N1CCOCC1`, the Kd is > 4 mM (inactive). In the case of `CC(=O)O[C@H]1C[C@@H](OC(C)=O)C(C)(C)C2C[C@@H](OC(C)=O)[C@]3(C)C([C@H](OC(C)=O)C[C@@]4(C)[C@H](c5ccoc5)OC(=O)[C@H]5O[C@]543)[C@]21C` (stereo partly drawn), the Kd is > 4 mM (inactive). As for `Cc1cc(SCC(=O)c2ccccc2)nc(=O)[nH]1`, the Kd is > 4 mM (inactive). The figure for `COc1cc(OC)c(-c2c(OC)cc(OC)cc2OC)c(OC)c1` is > 4 mM (inactive); for `Cc1cc(C)n2nc(N)nc2n1` it is > 4 mM (inactive). `COc1ccc([C@@H]2CC(=O)c3c(O)cc(O)cc3O2)cc1O`: the Kd is > 4 mM (inactive). With `Cc1cc2ncn(S(=O)(=O)N3CCCCC3)c2cc1C`, the Kd was > 4 mM (inactive). As for `CC(=O)c1cc2c(s1)SCC(=O)N2`, the Kd is > 4 mM (inactive). Consider `NC(=O)COc1ccccc1O`, for which the Kd is > 4 mM (inactive). `COCC(=O)Nc1cccc(Br)c1`: the Kd is > 4 mM (inactive). In the case of `O=c1n(-c2cccc(Cl)c2)c(=O)n2n1CCC2`, the Kd was > 4 mM (inactive). With `CC(=O)N/N=C(\C)c1cccc(N)c1`, the Kd was > 4 mM (inactive).

Take `O=C(O)C1CCN(c2ccc(C(F)(F)F)cn2)CC1`: the Kd is > 4 mM (inactive). Turning to `CC(=O)c1sc2nc(N)nn2c1C`, the Kd is > 4 mM (inactive). As to `CSc1nc(C)c(Oc2ccccc2)c(=O)n1C`, the Kd was > 4 mM (inactive).

Turning to `CC1(C)C2CC(=O)[C@]3(C)C(CC[C@@]4(C)[C@H](c5ccoc5)OC(=O)[C@H]5O[C@]543)[C@@]2(C)C(=O)C[C@H]1O` (stereo partly drawn), the Kd was > 4 mM (inactive).

Turning to `Cn1c(O)c(/C=C2\C=CC=N2)c(=O)[nH]c1=S`, the Kd is > 4 mM (inactive). For `Cc1nc2ccc(C(=O)O)cc2[nH]1` the value was > 4 mM (inactive).

Regarding `NC(=O)CSc1nnc(-c2ccncc2)o1`, the Kd was > 4 mM (inactive). In the case of `Cn1c(=O)c2[nH]cnc2n(C)c1=O`, the Kd was > 4 mM (inactive). Turning to `O=C(O)c1ccc2occc2c1`, the Kd was > 4 mM (inactive).

On to `NC(=O)CN1CC(c2ccccc2)CC1=O` (stereo not drawn), for which the Kd was > 4 mM (inactive). For the compound `Cc1ccc(CN2CCNC(=O)C2CC(=O)O)o1` (stereo not drawn), the Kd was > 4 mM (inactive). The figure for `COc1ccc(NC(=O)CCCC(=O)O)c(OC)c1` is > 4 mM (inactive); for `CC(C)(C)c1ccc(SCC(N)=O)cc1` it is 0.455 mM; for `Cc1cc(Cl)ccc1OC(C)C(=O)N1CCOCC1` (stereo not drawn) it is “inactive”. `Clc1cccc(Cl)c1Cn1c(-c2cscn2)nc2ccccc21`: the Kd entry was “inactive”.

With `COn1c(=O)c(C)[n+]([O-])c2ccccc21`, the Kd was > 4 mM (inactive). For `CC(C)c1c(O)ccc2c1CCC1[C@@](C)(CO)CCC[C@]21C` (stereo partly drawn), the Kd is > 4 mM (inactive). The figure for `C=C1C2CC[C@@]3(C)[C@H](c4ccoc4)OC(=O)C[C@]13O[C@H]1CC(=O)C(C)(C)[C@H](C(O)C(=O)OC)[C@@]21C` (stereo partly drawn) is > 4 mM (inactive); for `O=C(c1sc2cc(Cl)ccc2c1Cl)N1CCOCC1` it is “inactive”; for `COC1C(O)C(O[C@H]2CC[C@]3(C=O)C4C(CC[C@]3(O)C2)[C@@]2(O)CC[C@H](C3=CC(=O)OC3)[C@@]2(C)C[C@H]4OC(C)=O)OC(C)C1OC(C)=O` (stereo partly drawn) it is > 4 mM (inactive). As for `Cc1ccccc1CSc1nnc(C)n1N`, the Kd is > 4 mM (inactive). The figure for `CC(O)C(=O)N/N=C/c1ccccc1` (stereo not drawn) is > 4 mM (inactive); for `Cn1c(=O)n(CC(=O)Nc2cccnc2)c2ccccc21` it is > 4 mM (inactive). The figure for `O=C(O)c1cnc2n(c1=O)CCS2` is > 4 mM (inactive). Consider `O=C(O)CS(=O)(=O)c1ccccc1[N+](=O)[O-]`, for which the Kd was > 4 mM (inactive).

As to `Cc1ccc2cc(N)ccc2n1`, the Kd is > 4 mM (inactive). For the compound `Cc1nnc(SCc2ccc(F)cc2)s1`, the Kd was > 4 mM (inactive). Consider `Cc1cc(C)n(-c2ccc(N)cc2)n1`, for which the Kd was > 4 mM (inactive). For the compound `COc1cc(OC)c2c(=O)c(O)c(-c3ccc(OC)c(OC)c3)oc2c1`, the Kd was > 4 mM (inactive).

On to `c1ccc(Cc2nnc(-c3ccccc3)o2)cc1`, for which the Kd is > 4 mM (inactive). For `COc1cc(OC)cc(-c2nc(N)n[nH]2)c1` the value was > 4 mM (inactive); for `CC(C)=NNC(=O)C(=O)NC(C)(C)C`, > 4 mM (inactive); for `OCC1CCN(Cc2ccccc2)CC1`, > 4 mM (inactive). For `O=C1Nc2ccccc2C12OCCO2` the value was > 4 mM (inactive); for `CN(C)C(=S)Nc1nc2ccccc2s1`, 0.152 mM; for `CC1(C)C(=O)CC[C@@]2(C)C1C[C@@H](O)[C@@]1(C)C3=CC(=O)O[C@@H](c4ccoc4)[C@]3(C)CCC21` (stereo partly drawn), > 4 mM (inactive). For `Cc1cc(C(=O)N2CCN(S(C)(=O)=O)CC2)cs1`, the Kd is > 4 mM (inactive). The figure for `CC(=O)Nc1ccc(-c2nc(C)c(C(C)=O)n2O)cc1` is > 4 mM (inactive); for `COc1ccc(Cl)c(S(=O)(=O)N2CCCC2)c1` it is > 4 mM (inactive); for `CN1CCC2(CC1)CC1CC3C=CC1(CN2)O3` (stereo not drawn) it is > 4 mM (inactive). As to `C/C=C/c1ccc2c(c1)OCO2`, the Kd is > 4 mM (inactive). With `COc1ccc(/C=C2/C(=O)N=C(N)N2C)cc1OC`, the Kd was > 4 mM (inactive). The figure for `C[n+]1ccc(C(=O)[O-])cc1` is > 4 mM (inactive); for `COC(=O)Nc1nc2c(s1)CCCC2` it is > 4 mM (inactive). `C=C[C@](C)(O)CCC=C(C)C`: the Kd was > 4 mM (inactive). The figure for `c1cncc(C(N2CCOCC2)N2CCOCC2)c1` is > 4 mM (inactive); for `O=C1CC(=O)N2N=C(c3ccccc3)SC2=N1` it is > 4 mM (inactive); for `COc1ccc2cnn(-c3ccccc3)c(=O)c2c1OC` it is > 4 mM (inactive).

As to `CC(CCC(=O)O)[C@H]1CCC2C3C[C@H](O)[C@@H]4C[C@H](O)CC[C@]4(C)C3CC[C@@]21C` (stereo partly drawn), the Kd is > 4 mM (inactive). For `O=C1CC(=O)N(c2cccc(Cl)c2)N1` the value was > 4 mM (inactive).

In the case of `COc1ccc([C@@H]2CC(=O)c3c(O)cc(O[C@@H]4O[C@H](CO[C@H]5O[C@@H](C)[C@H](O)[C@@H](O)[C@H]5O)[C@@H](O)[C@H](O)[C@H]4O)cc3O2)cc1O`, the Kd was > 4 mM (inactive). For `O=C(NC1CCS(=O)(=O)C1)c1ccccc1` (stereo not drawn) the value was > 4 mM (inactive); for `O=C1CSC(=S)N1Cc1cccnc1`, > 4 mM (inactive). The figure for `CC(=O)O[C@H]1CC[C@@]2(C)C(C[C@@H](OC(C)=O)[C@@]3(C)C4=CC(=O)O[C@@H](c5ccoc5)[C@]4(C)CCC23)C1(C)C` (stereo partly drawn) is > 4 mM (inactive). `CN(C)S(=O)(=O)c1ccccc1C#N`: the Kd was > 4 mM (inactive). For `Nc1ccccc1C(=O)N1CCNC(=O)C1` the value was > 4 mM (inactive). For `COc1cc2c(cc1O)CC1c3c(cc(O)c(OC)c3-2)CCN1C` (stereo not drawn) the value was > 4 mM (inactive); for `CN1C(=O)/C(=C/c2ccc(O)cc2O)SC1=S`, > 4 mM (inactive); for `C=CCCCCCCCCCCCc1ccco1`, > 4 mM (inactive). With `COc1cc(O)c(C(=O)c2ccccc2)cc1O`, the Kd was > 4 mM (inactive). Turning to `COCCn1cnc2cc(C)c(C)cc21`, the Kd was > 4 mM (inactive). `CCOC(=O)C1CCN(c2ccc(C#N)cc2)CC1`: the Kd was > 4 mM (inactive). For `O=C(O)c1cc(O)c2c(c1)[C@@H]([C@H]1c3cc(C(=O)O)cc(O)c3C(=O)c3c(O[C@H]4O[C@H](CO)[C@@H](O)[C@H](O)[C@H]4O)cccc31)c1cccc(O[C@H]3O[C@H](CO)[C@@H](O)[C@H](O)[C@H]3O)c1C2=O` the value was > 4 mM (inactive). On to `COc1ccc2c(C)cc(=O)oc2c1`, for which the Kd is > 4 mM (inactive). In the case of `CC(C)(C)NC(=O)N1CCC(C(=O)O)CC1`, the Kd is > 4 mM (inactive).

Take `COc1ccc(C(=O)O)cc1OC`: the Kd was > 4 mM (inactive).

`Brc1cccc(-c2nnco2)c1`: the Kd was > 4 mM (inactive). For `CC(=O)Nc1ccc(S(=O)(=O)NC(N)=O)cc1` the value was > 4 mM (inactive). The figure for `CN1CCN(CC(=O)N2CCc3ccccc32)CC1` is > 4 mM (inactive). In the case of `Cc1ccc(NC(=O)C2CCN(S(C)(=O)=O)CC2)cc1`, the Kd is > 4 mM (inactive). On to `NC(=O)c1cc(N)ccc1N1CCCCC1`, for which the Kd was > 4 mM (inactive).

With `Cn1nnc2c(Cl)ncnc21`, the Kd was > 4 mM (inactive). The figure for `COc1cc(C(=S)N2CCCC2)cc(Cl)c1O` is > 4 mM (inactive); for `CC1(C)C=CC(=O)[C@@]2(C)C1CC(=O)[C@]1(C)C2CC[C@@]2(C)[C@H](c3ccoc3)OC(=O)C3OC321` (stereo partly drawn) it is > 4 mM (inactive). For `O=S(=O)(Nc1ccc2c(c1)oc1ccccc12)N1CCCCC1` the value was > 4 mM (inactive). For `O=C1NC(=S)NC(=O)C1=Cc1cccs1` the value was > 4 mM (inactive); for `Cn1nc(C(=O)N2CCOCC2)c2ccccc2c1=O`, > 4 mM (inactive); for `COc1cccc2onc(N)c12`, > 4 mM (inactive).

As to `NCc1ccc2occc2c1`, the Kd is > 4 mM (inactive). For `CC(=O)OCc1cc(=O)n(C)c(=O)n1C` the value was > 4 mM (inactive); for `CC(=O)c1ccc(N2C(=O)C(C(C)C)NC2=S)cc1` (stereo not drawn), > 4 mM (inactive).
